Test results: article PMC11844072, “Novel 5,6-dichlorobenzimidazole derivatives as dual BRAFWT and BRAFV600E inhibitors: design, synthesis, anti-cancer activity and molecular dynamics simulations” (BMC Chemistry, 2025)

Columns and labels:
Experiment in all cases: NCI 60 single concentration growth inhibition
Assay type in all cases: cell-based, human
SK-MEL-5 = conditions: SK-MEL-5, Melanoma; for GI%: 10 μM
Method in brief: (§1)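 Cells are plated and left 24 h, and a time-zero plate is fixed at drug addition. Compound is then added for 48 h, the cells are fixed in cold TCA and stained with 0.4% SRB, and bound dye is solubilised in 10 mM Tris for reading at 515 nm.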

MDA-MB-231/ATCC = conditions: Breast cancer; for GI%: 10 μM
Method in brief: as §1

SF-539 = conditions: SF-539, CNS cancer; for GI%: 10 μM
Method in brief: as §1

HL-60(TB) = conditions: Leukemia; for GI%: 10 μM
Method in brief: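 Growth measured by sulforhodamine B protein staining (515 nm) after 48 h drug exposure at 37 °C, following 24 h plating in RPMI 1640 with 5% FBS and 2 mM L-glutamine. Compounds first tested at one 10 µM dose, then five-dose series (10-fold or ½ log steps); percent growth relative to time-zero and untreated wells.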

CCRF-CEM = conditions: Leukemia; for GI%: 10 μM
Method in brief: as §1

HCT-116 = conditions: HCT-116, Colon cancer; for GI%: 10 μM
Method in brief: as §1

SR = conditions: Leukemia, 10 μM
Method in brief: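 Read-out is SRB absorbance at 515 nm after TCA fixation (10% for adherent lines, 16% for suspension lines). Drugs were applied for 48 h following a 24 h plating period. Growth percentages came from time-zero, control and treated absorbances.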

SK-OV-3 = conditions: SK-OV-3, Ovarian cancer; for GI%: 10 μM
Method in brief: as §1

HS 578T = conditions: Breast cancer; for GI%: 10 μM
Method in brief: as §1

A498 = conditions: A498, Renal cancer; for GI%: 10 μM
Method in brief: as §1

SK-MEL-28 = conditions: SK-MEL-28, Melanoma; for GI%: 10 μM
Method in brief: as §1

NCI-H23 = conditions: NCI-H23, Non-small cell lung cancer; for GI%: 10 μM
Method in brief: as §1

CAKI-1 = conditions: CAKI-1, Renal cancer; for GI%: 10 μM
Method in brief: as §1

UACC-62 = conditions: UACC-62, Melanoma; for GI%: 10 μM
Method in brief: as §1

SK-MEL-2 = conditions: SK-MEL-2, Melanoma; for GI%: 10 μM
Method in brief: as §1

MDA-MB-468 = conditions: MDA-MB-468, Breast cancer; for GI%: 10 μM
Method in brief: as §1

HOP-62 = conditions: HOP-62, Non-small cell lung cancer; for GI%: 10 μM
Method in brief: as §1

SNB-19 = conditions: SNB-19, CNS cancer; for GI%: 10 μM
Method: (§2) The synthesized dichlorobenzimidazoles 10a–p were assayed for their influence on divers cancer cell lines according to the method presented in the Additional file A.
(§3) 5. Screening of cytotoxic activity against a panel of sixty human tumor cell lines
(§4) The selected compounds by NCI were evaluated for their anticancer activity in a two-stage process. First, these compounds were screened against the full NCI 60 cell lines panel at a single high dose of 10 µM. Then, the output from the single dose screen is reported as a mean graph. […]
(§5) Assay protocol. The human tumor cell lines of the cancer screening panel are grown in RPMI 1640 medium containing 5% fetal bovine serum and 2 mM L-glutamine. For a typical screening experiment, cells are inoculated into 96 well microtiter plates in 100 µL at plating densities ranging from 5000 to 40,000 cells/well depending on the doubling time of individual cell lines. After cell inoculation, the microtiter plates are incubated at 37 °C, 5% CO 2, 95% air and 100% relative humidity for 24 h prior to addition of the experimental drugs.
(§6) After 24 h, two plates of each cell line are fixed in situ with TCA, to represent a measurement of the cell population for each cell line at the time of drug addition (Tz). The experimental drugs are solubilized in dimethyl sulfoxide at 400-fold the desired final maximum test concentration and stored frozen prior to use. At the time of drug addition, an aliquot of frozen concentrate is thawed and diluted to twice the desired final maximum test concentration with complete medium containing 50 µg/mL gentamicin. Additional four, 10-fold or ½ log serial dilutions are made to provide a total of five drug concentrations plus control.
(§7) Aliquots of […] of these different drug dilutions are added to the appropriate microtiter wells already containing […] of medium, resulting in the required final drug concentrations.
(§8) Following drug addition, the plates are incubated for an additional 48 h at 37 °C, 5% CO 2, 95% air, and 100% relative humidity. For adherent cells, the assay is terminated by the addition of cold TCA.
(§9) Cells are fixed in situ by the gentle addition of 50 µL of cold 50% (w/v) TCA (final concentration, 10% TCA) and incubated for 60 min at 4 °C. The supernatant is discarded, and the plates are washed five times with tap water and air dried. Sulforhodamine B (SRB) solution ([…]) at 0.4% (w/v) in 1% acetic acid is added to each well, and plates are incubated for 10 min at room temperature. After staining, unbound dye is removed by washing five times with 1% acetic acid and the plates are air dried. Bound stain is subsequently solubilized with 10 mM trizma base, and the absorbance is read on an automated plate reader at a wavelength of 515 nm. For suspension cells, the methodology is […]
(§10) the same except that the assay is terminated by fixing settled cells at the bottom of the wells by gently adding 50 µl of 80% TCA (final concentration, 16% TCA). Using the seven absorbance measurements [time zero, (Tz), control growth, (C), and test growth in the presence of drug at the five concentration levels (Ti)], the percentage growth is calculated at each of the drug concentrations […]
(§11) Percentage growth inhibition is calculated as: [(Ti Tz)/(C–Tz)] x 100 for concentrations for which Ti>/=Tz and [(Ti-Tz)/Tz] x 100 for concentrations for which Ti < Tz. […]
(§12) Results for each compound were reported as a mean graph of the percent growth of the treated cells when compared to the untreated control cells. There after obtaining the results for one dose assay, analysis of historical Development Therapeutics Programme (DTP) was performed and compounds which satisfies predetermined threshold inhibition criteria is selected for NCI full panel 5 dose assay.

HCC-2998 = conditions: HCC-2998, Colon cancer; for GI%: 10 μM
Method: as §2, §3, §4, §5, §6, §7, §8, §9, §10, §11, §12

With “2-(4-((2-(2-(5,6-Dichloro-2-(4-methoxyphenyl)-1H-benzo[d]imidazol-1-yl)acetyl)hydrazono)methyl) -2-methoxyphenoxy)acetic acid [Compound 10m]” the GI% (SK-MEL-5) was “– (GI% < 5%)”, the GI% (MDA-MB-231/ATCC) was “– (GI% < 5%)” and the GI% (SF-539) was “– (GI% < 5%)”. For the same compound, the GI% (HL-60(TB)) was “– (GI% < 5%)”, the GI% (CCRF-CEM) was “– (GI% < 5%)” and the GI% (HCT-116) was “– (GI% < 5%)”. For the same compound, the GI% (SR) was “– (GI% < 5%)”, the GI% (SK-OV-3) was “– (GI% < 5%)” and the GI% (HS 578T) was “– (GI% < 5%)”. For the same compound, the GI% (A498) was “– (GI% < 5%)”, the GI% (SK-MEL-28) was “– (GI% < 5%)” and the GI% (NCI-H23) was 8.00%. For the same compound, the GI% (CAKI-1) was “– (GI% < 5%)”, the GI% (UACC-62) was 6.42% and the GI% (SK-MEL-2) was “– (GI% < 5%)”. For the same compound, the GI% (MDA-MB-468) was “– (GI% < 5%)”, the GI% (HOP-62) was “– (GI% < 5%)” and the GI% (SNB-19) was “– (GI% < 5%)”. The GI% (HCC-2998) was “– (GI% < 5%)”.
In the case of “2-(5-((2-(2-(5,6-Dichloro-2-(4-methoxyphenyl)-1H-benzo[d]imidazol-1-yl)acetyl)hydrazono)methyl)-2-methoxyphenoxy)acetic acid [Compound 10n]”, the GI% (SK-MEL-5) is reported as “– (GI% < 5%)”, the GI% (MDA-MB-231/ATCC) is reported as 11.50% and the GI% (SF-539) is reported as “– (GI% < 5%)”. For the same compound, the GI% (HL-60(TB)) was “– (GI% < 5%)”, the GI% (CCRF-CEM) was “– (GI% < 5%)” and the GI% (HCT-116) was 6.00%. For the same compound, the GI% (SR) was 9.65%, the GI% (SK-OV-3) was “– (GI% < 5%)” and the GI% (HS 578T) was 6.21%. For the same compound, the GI% (A498) was “– (GI% < 5%)”, the GI% (SK-MEL-28) was “– (GI% < 5%)” and the GI% (NCI-H23) was 9.67%. For the same compound, the GI% (CAKI-1) was “– (GI% < 5%)”, the GI% (UACC-62) was 9.71% and the GI% (SK-MEL-2) was “– (GI% < 5%)”. For the same compound, the GI% (MDA-MB-468) was 12.44%, the GI% (HOP-62) was “– (GI% < 5%)” and the GI% (SNB-19) was “– (GI% < 5%)”. The GI% (HCC-2998) was “– (GI% < 5%)”.
In the case of “3-(4-((2-(2-(5,6-Dichloro-2-(4-methoxyphenyl)-1H-benzo[d]imidazol-1-yl)acetyl)hydrazono)methyl)phenoxy)propanoic acid [Compound 10i]”, the GI% (SK-MEL-5) is reported as 14.39%, the GI% (MDA-MB-231/ATCC) is reported as 12.19% and the GI% (SF-539) is reported as “– (GI% < 5%)”. The GI% (HL-60(TB)) was “– (GI% < 5%)”, the GI% (CCRF-CEM) was 10.70% and the GI% (HCT-116) was 11.45%. The GI% (SK-OV-3) was 6.27%, the GI% (HS 578T) was “– (GI% < 5%)” and the GI% (A498) was “– (GI% < 5%)”. The GI% (SK-MEL-28) was “– (GI% < 5%)”, the GI% (NCI-H23) was 13.85% and the GI% (CAKI-1) was 10.19%. The GI% (UACC-62) was 10.17%, the GI% (SK-MEL-2) was “– (GI% < 5%)” and the GI% (MDA-MB-468) was 10.83%. The GI% (HOP-62) was “– (GI% < 5%)”, the GI% (SNB-19) was 5.79% and the GI% (HCC-2998) was “– (GI% < 5%)”.
In the case of `CCOC(=O)C(C)Oc1ccc(C=NNC(=O)Cn2c(-c3ccc(OC)cc3)nc3cc(Cl)c(Cl)cc32)cc1` (centres unmarked) [Compound 10j, Ethyl-2-(4-((2-(2-(5,6-dichloro-2-(4-methoxyphenyl)-1H-benzo[d]imidazol-1-yl)acetyl) hydrazono)methyl)phenoxy)propanoate], the inhibition at 10 µM (SK-MEL-5; Homo sapiens, read-out: GI%) is reported as 25.2%, the inhibition at 10 µM (MDA-MB-231/ATCC; Homo sapiens, read-out: GI%) is reported as 17.2% and the inhibition at 10 µM (SF-539; Homo sapiens, read-out: GI%) is reported as < 5%. The inhibition at 10 µM (HL-60(TB); Homo sapiens, read-out: GI%) was 6.19%, the inhibition at 10 µM (CCRF-CEM; Homo sapiens, read-out: GI%) was 25.8% and the inhibition at 10 µM (HCT-116; Homo sapiens, read-out: GI%) was 32.3%. The inhibition at 10 µM (SK-OV-3; Homo sapiens, read-out: GI%) was 5.5%, the inhibition at 10 µM (HS 578T; Homo sapiens, read-out: GI%) was < 5% and the inhibition at 10 µM (A498; Homo sapiens, read-out: GI%) was < 5%. For the same compound, the inhibition at 10 µM (SK-MEL-28; Homo sapiens, read-out: GI%) was < 5%, the inhibition at 10 µM (NCI-H23; Homo sapiens, read-out: GI%) was 20.8% and the inhibition at 10 µM (CAKI-1; Homo sapiens, read-out: GI%) was 9.1%. For the same compound, the inhibition at 10 µM (UACC-62; Homo sapiens, read-out: GI%) was 20.1%, the inhibition at 10 µM (SK-MEL-2; Homo sapiens, read-out: GI%) was 8.36% and the inhibition at 10 µM (MDA-MB-468; Homo sapiens, read-out: GI%) was 43.9%. The inhibition at 10 µM (HOP-62; Homo sapiens, read-out: GI%) was < 5%, the inhibition at 10 µM (SNB-19; Homo sapiens, read-out: GI%) was 11.2% and the inhibition at 10 µM (HCC-2998; Homo sapiens, read-out: GI%) was 15.4%.
